According to US10308644B2, “Heterocyclic compounds as immunomodulators” (Incyte Corporation, priority 2016, dated 2019):

target: PD-1/PD-L1 (Homo sapiens (Human), UniProt Q9NZQ7); experiment: PD-1/PD-L1 Homogeneous Time-Resolved Fluorescence (HTRF) Binding Assay; settings: recombinant human PD-1 (3 nM) and PD-L1 (10 nM), 25° C., PBS pH 7.4
Summary of the method: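 Fc-tagged human PD-1 (25-167, 3 nM) and His-tagged PD-L1 (19-238, 10 nM) preincubated with inhibitor 40 min in PBS pH 7.4, 0.05% Tween-20, 0.1% BSA, 1% DMSO, 25 °C. Binding detected by HTRF (Eu anti-IgG/APC anti-His, 665/620 nm) after 60 min; IC50 from percent control activity.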

Sequence of PD-1/PD-L1 (Q9NZQ7 19-238): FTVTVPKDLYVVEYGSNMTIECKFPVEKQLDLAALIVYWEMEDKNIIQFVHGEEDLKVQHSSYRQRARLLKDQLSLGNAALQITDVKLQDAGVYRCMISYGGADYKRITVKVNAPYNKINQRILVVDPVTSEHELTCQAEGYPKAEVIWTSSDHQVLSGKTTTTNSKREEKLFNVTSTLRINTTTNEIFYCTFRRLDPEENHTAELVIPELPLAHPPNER

IC50, ≤ 10 nM:
Cc1c(-c2nc3cc(CN4CC[C@H](C(=O)O)C4)cc(C#N)c3o2)cccc1-c1cccc(NC(=O)c2nc3c(n2C)CCN(C)C3)c1F [Example 51, (S)-1-((7-cyano-2-(3′-(1,5-dimethyl-4,5,6,7-tetrahydro-1H-imidazo[4,5-c]pyridine-2-carboxamido)-2′-fluoro-2-methylbiphenyl-3-yl)benzo[d]oxazol-5-yl)methyl)pyrrolidine-3-carboxylic acid]
Cc1c(Nc2nccc3cc(CN4CC[C@@H](O)C4)cnc23)cccc1-c1cccc(-c2nc3cc(CN4CC[C@@H](CC(=O)O)C4)cc(C#N)c3o2)c1C [Example 174, 2-((S)-1-((7-cyano-2-(3′-(3-(((R)-3-hydroxypyrrolidin-1-yl)methyl)-1,7-naphthyridin-8-ylamino)-2,2′-dimethylbiphenyl-3-yl)benzo[d]oxazol-5-yl)methyl)pyrrolidin-3-yl)acetic acid]
Cc1c(Nc2nccc3cc(CN[C@@H](C)CO)cnc23)cccc1-c1cccc(-c2nc3cc(CN4CC[C@@H](C(=O)O)C4)cc(C#N)c3o2)c1C [Example 257, (R)-1-((7-cyano-2-(3′-(3-(((S)-1-hydroxypropan-2-ylamino)methyl)-1,7-naphthyridin-8-ylamino)-2,2′-dimethylbiphenyl-3-yl)benzo[d]oxazol-5-yl)methyl)pyrrolidine-3-carboxylic acid]
Cc1c(Nc2nccc3cc(CN4CC[C@@H](O)C4)cnc23)cccc1-c1cccc(-c2nc3cc(CN[C@H]4CCC[C@@H]4C(=O)O)cc(C#N)c3o2)c1C [Example 179, (1S,2S)-2-((7-cyano-2-(3′-(3-(((R)-3-hydroxypyrrolidin-1-yl)methyl)-1,7-naphthyridin-8-ylamino)-2,2′-dimethylbiphenyl-3-yl)benzo[d]oxazol-5-yl)methylamino)cyclopentanecarboxylic acid]
Cc1c(-c2nc3c(o2)CCNC3)cccc1-c1cccc(-c2nc3cc(CN4CC[C@@H](C(=O)O)C4)cc(C#N)c3o2)c1C [Example 75, (R)-1-((7-cyano-2-(2,2′-dimethyl-3′-(4,5,6,7-tetrahydrooxazolo[4,5-c]pyridin-2-yl)-[1,1′-biphenyl]-3-yl)benzo[d]oxazol-5-yl)methyl)pyrrolidine-3-carboxylic acid]
Cc1c(Nc2nccc3cc(CN4CC[C@@H](O)C4)cnc23)cccc1-c1cccc(-c2nc3cc(CN4CC[C@H](C(=O)O)C4)cc(Cl)c3o2)c1C [Example 19, (S)-1-((7-chloro-2-(3′-(3-(((R)-3-hydroxypyrrolidin-1-yl)methyl)-1,7-naphthyridin-8-ylamino)-2,2′-dimethylbiphenyl-3-yl)benzo[d]oxazol-5-yl)methyl)pyrrolidine-3-carboxylic acid]
CCN1CCc2c(nc(C(=O)Nc3cccc(-c4cccc(-c5nc6cc(CN7CC[C@@H](C(=O)O)C7)cc(C#N)c6o5)c4C)c3Cl)n2C)C1 [Example 143, (R)-1-((2-(2′-chloro-3′-(5-ethyl-1-methyl-4,5,6,7-tetrahydro-1H-imidazo[4,5-c]pyridine-2-carboxamido)-2-methyl-[1,1′-biphenyl]-3-yl)-7-cyanobenzo[d]oxazol-5-yl)methyl)pyrrolidine-3-carboxylic acid]
Cc1c(-c2nc3cc(CN4CC[C@@H](C(=O)O)C4)cc(Cl)c3o2)cccc1-c1cccc(-c2nc3c(s2)CN(C(C)CO)CC3)c1C (stereo partly drawn) [Example 62, (3R)-1-((7-chloro-2-(3′-(5-(1-hydroxypropan-2-yl)-4,5,6,7-tetrahydrothiazolo[5,4-c]pyridin-2-yl)-2,2′-dimethyl-[1,1′-biphenyl]-3-yl)benzo[d]oxazol-5-yl)methyl)pyrrolidine-3-carboxylic acid]
Cc1c(-c2nc3cc(CN4CC[C@H](C(=O)O)C4)cc(C#N)c3o2)cccc1-c1cccc(NC(=O)c2nc3c(n2C)CCN(C)C3)c1Cl [Example 50, (S)-1-((2-(2′-chloro-3′-(1,5-dimethyl-4,5,6,7-tetrahydro-1H-imidazo[4,5-c]pyridine-2-carboxamido)-2-methylbiphenyl-3-yl)-7-cyanobenzo[d]oxazol-5-yl)methyl)pyrrolidine-3-carboxylic acid]
CNC1CCN(c2cccc(-c3cccc(-c4nc5cc(CN6CC[C@@H](C(=O)O)C6)cc(Cl)c5o4)c3C)c2Cl)CC1 [Example 43, (R)-1-((7-chloro-2-(2′-chloro-2-methyl-3′-(4-(methylamino)piperidin-1-yl)biphenyl-3-yl)benzo[d]oxazol-5-yl)methyl)pyrrolidine-3-carboxylic acid]
Cc1c(Nc2nccc3cc(CNCC(C)(C)O)cnc23)cccc1-c1cccc(-c2nc3cc(CN4CCCC[C@H]4C(=O)O)cc(Cl)c3o2)c1C [Example 4, (S)-1-((7-chloro-2-(3′-((3-(((2-hydroxy-2-methylpropyl)amino)methyl)-1,7-naphthyridin-8-yl)amino)-2,2′-dimethyl-[1,1′-biphenyl]-3-yl)benzo[d]oxazol-5-yl)methyl)piperidine-2-carboxylic acid]
Cc1c(Nc2nccc3cc(CNC[C@@H](C)O)cnc23)cccc1-c1cccc(-c2nc3cc(CN4CCC(C(=O)O)CC4)cc(C#N)c3o2)c1C [Example 203, (R)-1-((7-cyano-2-(3′-(3-((2-hydroxypropylamino)methyl)-1,7-naphthyridin-8-ylamino)-2,2′-dimethylbiphenyl-3-yl)benzo[d]oxazol-5-yl)methyl)piperidine-4-carboxylic acid]
Cc1c(Nc2nccc3cc(CN4CCC(C(=O)O)CC4)cnc23)cccc1-c1cccc(-c2nc3cc(CN[C@@H](C)CO)cc(C#N)c3o2)c1C [Example 213, (S)-1-((8-(3′-(7-cyano-5-((1-hydroxypropan-2-ylamino)methyl)benzo[d]oxazol-2-yl)-2,2′-dimethylbiphenyl-3-ylamino)1,7-naphthyridin-3-yl)methyl)piperidine-4-carboxylic acid]
Cc1c(-c2nc3c(o2)CN(C(=O)CN2CCC(O)CC2)C3)cccc1-c1cccc(-c2nc3cc(CN4CC[C@@H](C(=O)O)C4)cc(C#N)c3o2)c1C [Example 250, (R)-1-((7-cyano-2-(3′-(5-(2-(4-hydroxypiperidin-1-yl)acetyl)-5,6-dihydro-4H-pyrrolo[3,4-d]oxazol-2-yl)-2,2′-dimethyl-[1,1′-biphenyl]-3-yl)benzo[d]oxazol-5-yl)methyl)pyrrolidine-3-carboxylic acid]
CNC(=O)[C@@H]1CCN(Cc2cc(C#N)c3oc(-c4cccc(-c5cccc(-n6cc7c(n6)CN(C(C)C)CC7)c5Cl)c4C)nc3c2)C1 [Example 103, (R)-1-((2-(2′-chloro-3′-(6-isopropyl-4,5,6,7-tetrahydro-2H-pyrazolo[3,4-c]pyridin-2-yl)-2-methylbiphenyl-3-yl)-7-cyanobenzo[d]oxazol-5-yl)methyl)-N-methylpyrrolidine-3-carboxamide]
Cc1c(-c2nc3cc(CN[C@@H](C)C(=O)O)cc(C#N)c3o2)cccc1-c1cccc(NC(=O)c2nc3c(n2C)CCN(C)C3)c1Cl [Example 90, (S)-2-((2-(2′-chloro-3′-(1,5-dimethyl-4,5,6,7-tetrahydro-1H-imidazo[4,5-c]pyridine-2-carboxamido)-2-methylbiphenyl-3-yl)-7-cyanobenzo[d]oxazol-5-yl)methylamino)propanoic acid]
Cc1c(-c2nc3cc(CN4CC[C@H](C(=O)O)C4)cc(C#N)c3o2)cccc1-c1cccc(-n2cc3c(n2)CCN(C)C3)c1Cl [Example 54, (S)-1-((2-(2′-chloro-2-methyl-3′-(5-methyl-4,5,6,7-tetrahydro-2H-pyrazolo[4,3-c]pyridin-2-yl)biphenyl-3-yl)-7-cyanobenzo[d]oxazol-5-yl)methyl)pyrrolidine-3-carboxylic acid]
Cc1c(-c2nc3cc(CN4CC[C@@H](C(=O)O)C4)cc(C#N)c3o2)cccc1-c1cccc(Nc2nccc3nccnc23)c1Cl [Example 14, (R)-1-((2-(2′-chloro-2-methyl-3′-(pyrido[4,3-b]pyrazin-5-ylamino)biphenyl-3-yl)-7-cyanobenzo[d]oxazol-5-yl)methyl)pyrrolidine-3-carboxylic acid]
Cc1c(-c2nc3cc(CN4CC[C@@H](C(=O)O)C4)cc(Cl)c3o2)cccc1-c1cccc(-c2nc3c(s2)CN(C(C)C)CC3)c1C [Example 59, (R)-1-((7-chloro-2-(3′-(5-isopropyl-4,5,6,7-tetrahydrothiazolo[5,4-c]pyridin-2-yl)-2,2′-dimethyl-[1,1′-biphenyl]-3-yl)benzo[d]oxazol-5-yl)methyl)pyrrolidine-3-carboxylic acid]
Cc1c(-c2nc3cc(CN4CC[C@@H](O)C4)cc(C#N)c3o2)cccc1-c1cccc(NC(=O)c2nc3c(n2C)CCN(C2CC(C)(C(=O)O)C2)C3)c1Cl (stereo partly drawn) [Example 263, (R)-3-(2-(2-chloro-3′-(7-cyano-5-((3-hydroxypyrrolidin-1-yl)-methyl)benzo[d]oxazol-2-yl)-2′-methylbiphenyl-3-ylcarbamoyl)-1-methyl-6,7-dihydro-1H-imidazo[4,5-c]pyridin-5(4H)-yl)-1-methylcyclobutanecarboxylic acid]
Cc1c(-c2nc3cc(CN4CC[C@@H](C(=O)NS(C)(=O)=O)C4)cc(C#N)c3o2)cccc1-c1cccc(-c2nc3c(s2)CN(C(C)C)CC3)c1C [Example 238, (R)-1-((7-cyano-2-(3′-(5-isopropyl-4,5,6,7-tetrahydrothiazolo[5,4-c]pyridin-2-yl)-2,2′-dimethyl-[1,1′-biphenyl]-3-yl)benzo[d]oxazol-5-yl)methyl)-N-(methylsulfonyl)pyrrolidine-3-carboxamide]
Cc1c(-c2nc3cc(CN4CCC(C(=O)O)CC4)cc(C#N)c3o2)cccc1-c1cccc(NC(=O)c2nc3c(n2C)CCN(C)C3)c1Cl [Example 89, 1-((2-(2′-chloro-3′-(1,5-dimethyl-4,5,6,7-tetrahydro-1H-imidazo[4,5-c]pyridine-2-carboxamido)-2-methylbiphenyl-3-yl)-7-cyanobenzo[d]oxazol-5-yl)methyl)piperidine-4-carboxylic acid]
